From the supplement of paper PMC7840683
Where a name gives a salt, the structure may show the parent alone. ± gives the standard deviation of the averaged measurements.

Tested on: HepaRG
Assay: LDH release cytotoxicity, % of total lysis control; higher = more cytotoxic
Settings: 48 h
Summary of the method: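 Single-lot HepaRG cells in collagen I-coated 96-well plates were treated for 48 h in serum-free induction medium containing 0.5% DMSO with test chemicals in eight-point half-log series up to 100 µM. For total lysis, wells received 0.1% Triton X. LDH in 50 µL spent medium was assayed by resorufin fluorescence with CytoTox-ONE. Percent cytotoxicity was normalized to the on-plate vehicle and total lysis controls, with duplicates averaged.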

| Structure (SMILES) | LDH release cytotoxicity (0.03162 µM) [%] | LDH release cytotoxicity (0.1 µM) [%] | LDH release cytotoxicity (0.3162278 µM) [%] | LDH release cytotoxicity (1 µM) [%] | LDH release cytotoxicity (3.16228 µM) [%] | LDH release cytotoxicity (10 µM) [%] | LDH release cytotoxicity (31.6228 µM) [%] | LDH release cytotoxicity (100 µM) [%] | also measured |
| --- | --- | --- | --- | --- | --- | --- | --- | --- | --- |
| Cc1nc[nH]c1CC1CCc2c(C)c3ccccc3n2C1=O (configuration not stated) [Fabesetron hydrochloride] | – | – | – | – | – | – | – | – | LDH release cytotoxicity (0.0281443 µM): -1.11 ± 1.1%; LDH release cytotoxicity (0.089 µM): -1.43 ± 0.83%; LDH release cytotoxicity (0.281443 µM): -1.19 ± 0.51%; LDH release cytotoxicity (0.89 µM): -1.4 ± 0.97%; LDH release cytotoxicity (2.81443 µM): -1.38 ± 1.2%; LDH release cytotoxicity (8.9 µM): -0.0311 ± 2%; LDH release cytotoxicity (28.144271 µM): 43.7 ± 4.9%; LDH release cytotoxicity (89 µM): 76.2 ± 2.1% |
| Nc1ccc2c(c1)C(=O)c1ccccc1C2=O [2-Aminoanthraquinone] | -1.78 ± 0.3 | -1.65 ± 0.022 | -1.65 ± 0.11 | -1.44 ± 0.32 | -1.62 ± 0.56 | -1.05 ± 0.29 | -1.21 ± 0.022 | -0.125 ± 0.23 | – |
| CCNc1nc(N)nc(Cl)n1 [Deisopropylatrazine] | -0.429 ± 0.17 | -1.18 ± 0.59 | -0.471 ± 0.66 | -1.46 ± 0.071 | -0.314 ± 0.35 | -0.765 ± 0.36 | -0.375 ± 0.045 | 0.373 ± 0.5 | – |
| COc1ccc(C)cc1N [2-Methoxy-5-methylaniline] | -1.46 ± 2 | -3.72 ± 0.18 | -3.46 ± 0.056 | -4.05 ± 0.41 | -3.672 ± 0.029 | -4.54 ± 1.1 | -2.55 ± 0.51 | 14.6 ± 1.5 | – |
| O=C1c2ccccc2C(=O)N1CCc1noc(-c2ccc(CN3CCCCCC3)s2)n1 | – | – | – | – | – | – | – | – | LDH release cytotoxicity (0.026721 µM): 1.83 ± 0.47%; LDH release cytotoxicity (0.0845 µM): -0.403 ± 0.25%; LDH release cytotoxicity (0.267212 µM): -0.399 ± 0.032%; LDH release cytotoxicity (0.845 µM): -0.205 ± 0.38%; LDH release cytotoxicity (2.67212 µM): -7.752 ± 0.013%; LDH release cytotoxicity (8.45 µM): 7.6 ± 1.2%; LDH release cytotoxicity (26.7213 µM): 1.47 ± 2.3%; LDH release cytotoxicity (84.5 µM): -1.5 ± 0.19% |
| Cc1cccc(Nc2cc(Cl)nc(SCC(=O)O)n2)c1C [Pirinixic acid] | -1.32 ± 0.91 | -1.59 ± 0.0083 | -0.978 ± 0.7 | -0.873 ± 0.35 | -1.38 ± 0.058 | -1.43 ± 0.6 | 0.274 ± 0.74 | 2.17 ± 0.81 | – |
| Clc1nc(Cl)c(Cl)c(Cl)c1Cl [Pentachloropyridine] | -0.545 ± 0.73 | -1.54 ± 0.25 | -1.28 ± 1.4 | -1.08 ± 1.1 | -0.873 ± 0.5 | -1.56 ± 0.52 | -0.833 ± 0.26 | 0.716 ± 0.84 | – |
| C=CCC1=C(C)C(OC(=O)C2C(C=C(C)C)C2(C)C)CC1=O (configuration not stated) [Allethrin] | 0.254 ± 1.2 | -0.919 ± 0.37 | -1.19 ± 0.46 | -0.231 ± 0.68 | -1.87 ± 0.067 | -1.69 ± 0.11 | -0.447 ± 0.21 | -0.904 ± 0.67 | – |
| c1ccc2occc2c1 [2,3-Benzofuran] | -0.572 ± 0.84 | -1.07 ± 0.4 | -0.829 ± 0.4 | -0.181 ± 0.71 | -1.1 ± 0.81 | 0.338 ± 0.67 | 2.32 ± 1.2 | 2.02 ± 0.38 | – |
| CNC(=O)Oc1cccc2c1OC(C)(C)C2 [Carbofuran] | -0.0403 ± 0.34 | -0.693 ± 0.36 | -0.49 ± 1.3 | -0.23 ± 0.93 | -0.812 ± 0.2 | -1.07 ± 0.049 | -0.52 ± 0.15 | 0.343 ± 0.33 | – |
| CC(C)(C)OOC(C)(C)C [Di-tert-butyl peroxide] | – | – | – | – | – | – | – | – | LDH release cytotoxicity (0.01581 µM): -1.21 ± 0.27%; LDH release cytotoxicity (0.05 µM): -2.14 ± 0.51%; LDH release cytotoxicity (0.1581139 µM): -1.99 ± 0.23%; LDH release cytotoxicity (0.5 µM): -2.18 ± 0.81%; LDH release cytotoxicity (1.5811388 µM): -1.46 ± 0.93%; LDH release cytotoxicity (5 µM): -1.68 ± 1.1%; LDH release cytotoxicity (15.8114 µM): -1.75 ± 0.98%; LDH release cytotoxicity (50 µM): -1.55 ± 0.28% |
| CC(=O)[O][Hg][c]1ccccc1 [Phenylmercuric acetate] | -1.79 ± 0.027 | -0.0392 ± 0.1 | 3.3 ± 0.71 | 13.6 ± 5 | 23.5 ± 4.7 | 45.48 ± 0.45 | -7.82 ± 0.28 | -8.63 ± 0.18 | – |
| Oc1cccc(O)c1 [Resorcinol] | -0.658 ± 0.45 | -1.17 ± 0.33 | -0.864 ± 0.51 | -1.17 ± 0.85 | -2.41 ± 1 | -0.6 ± 0.62 | -0.357 ± 1.3 | 2.31 ± 0.55 | – |
| CC(C)Oc1cc(-n2nc(C(C)(C)C)oc2=O)c(Cl)cc1Cl [Oxadiazon] | -0.101 ± 1 | -0.564 ± 0.81 | -0.449 ± 1.2 | 0.329 ± 0.022 | 0.576 ± 0.019 | 0.044 ± 0.0027 | 0.449 ± 0.49 | 13.02 ± 0.12 | – |
| O=C(O)c1ccccc1C(=O)OCc1ccccc1 [Monobenzyl phthalate] | -6.32 ± 1.2 | -7.14 ± 0.13 | -7.38 ± 0.78 | -7.25 ± 1 | -7.03 ± 0.21 | -6.25 ± 0.21 | -5.79 ± 1.9 | -5.73 ± 0.38 | – |
| Cc1ccc(C)c(C)c1 [1,2,4-Trimethylbenzene] | -1.1 ± 0.13 | -1.09 ± 0.14 | -1.49 ± 0.63 | -1.38 ± 0.46 | -0.646 ± 0.4 | -0.854 ± 0.4 | 0.161 ± 0.23 | 1.55 ± 0.46 | – |
| CC(C)N(Cc1ccccc1)C(=O)C(C)(C)C [Butam] | -0.681 ± 0.21 | -1.54 ± 0.98 | -1.1 ± 0.59 | -0.413 ± 0.43 | -0.189 ± 0.29 | 0.285 ± 0.9 | 0.032 ± 0.83 | 0.934 ± 0.57 | – |
| CCCCOC(=O)c1ccccc1C(=O)OCc1ccccc1 [Benzyl butyl phthalate] | -0.944 ± 0.033 | -1.99 ± 0.74 | -1.76 ± 0.079 | -1.14 ± 0.11 | -1.707 ± 0.0079 | -2.01 ± 0.3 | -0.748 ± 0.15 | 0.329 ± 0.83 | – |
| Cc1ccc(S(=O)(=O)NC(=O)NN2CCCCCC2)cc1 [Tolazamide] | -1.21 ± 0.35 | -1.21 ± 0.45 | -1.26 ± 0.85 | -1.16 ± 0.26 | -0.648 ± 0.45 | -0.378 ± 0.45 | -0.0919 ± 0.11 | 1.58 ± 1.5 | – |
